# Assay results as given in patent US9403806B1, “Cognition enhancing compounds and compositions, methods of making, and methods of treating” (NeuroSolis, Inc., priority 2010, dated 2016).
# Key:
# Format in all cases: cell-based
# [1] = target: T1, human muscarinic M1 receptors (Homo sapiens, UniProt P11229); settings: relative to the potency of carbachol at its EC50
# T1 construct: host or cells: A9L cells
# T1 sequence (P11229 1-460): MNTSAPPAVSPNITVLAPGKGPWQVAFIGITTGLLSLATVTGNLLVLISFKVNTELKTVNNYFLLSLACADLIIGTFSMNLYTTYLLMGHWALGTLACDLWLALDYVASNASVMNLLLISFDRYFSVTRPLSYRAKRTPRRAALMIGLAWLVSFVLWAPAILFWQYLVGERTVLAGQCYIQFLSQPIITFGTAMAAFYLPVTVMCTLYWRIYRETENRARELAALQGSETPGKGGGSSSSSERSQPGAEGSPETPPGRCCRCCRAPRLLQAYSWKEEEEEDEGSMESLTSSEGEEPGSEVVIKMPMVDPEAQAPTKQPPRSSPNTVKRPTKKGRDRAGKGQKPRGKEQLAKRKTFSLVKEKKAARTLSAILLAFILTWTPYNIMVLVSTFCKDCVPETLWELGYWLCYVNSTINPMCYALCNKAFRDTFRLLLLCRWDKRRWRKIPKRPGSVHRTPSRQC
# Procedure: (§1) Muscarinic M1 and M3 agonist activity was evaluated by measuring the stimulation of inositol phosphate (IP) production in the presence of lithium chloride from A9L cells transfected with expression plasmids containing human muscarinic M1 and M3 receptors, respectively. The cell lines were a gift from Professor William Messer, and the methods were as described in Tejada et al. (J. Med. Chem. 2006; 49: 7518-31) except that the assay was scaled down to run in 384-well plates and the concentration of inositol-1-phosphate in the lysates was determined using the non-isotopic IP-One Terbium TR-FRET assay kit (Cisbio Bioassays, cat. #62IPAPEJ) according to the manufacturer's instructions.
# (§2) Cells were grown to 90% confluence in 384-well high-base, small-volume plates (Greiner Bio-One), compounds were added at suitable concentrations in growth medium containing 10 mM LiCl, buffered with an extra 10 mM HEPES (pH=7.4), and incubated for 60 minutes at 37° C. Cells were lysed and assayed for IP following the manufacturer's instructions.
# (§3) The value for a full agonist is 100%, while partial agonists give values below 100%.
# [2] = target: T2, human muscarinic M3 receptors (Homo sapiens, UniProt P20309); settings: relative to the potency of carbachol at its EC50
# T2 construct: host or cells: A9L cells
# T2 sequence (P20309 whole entry): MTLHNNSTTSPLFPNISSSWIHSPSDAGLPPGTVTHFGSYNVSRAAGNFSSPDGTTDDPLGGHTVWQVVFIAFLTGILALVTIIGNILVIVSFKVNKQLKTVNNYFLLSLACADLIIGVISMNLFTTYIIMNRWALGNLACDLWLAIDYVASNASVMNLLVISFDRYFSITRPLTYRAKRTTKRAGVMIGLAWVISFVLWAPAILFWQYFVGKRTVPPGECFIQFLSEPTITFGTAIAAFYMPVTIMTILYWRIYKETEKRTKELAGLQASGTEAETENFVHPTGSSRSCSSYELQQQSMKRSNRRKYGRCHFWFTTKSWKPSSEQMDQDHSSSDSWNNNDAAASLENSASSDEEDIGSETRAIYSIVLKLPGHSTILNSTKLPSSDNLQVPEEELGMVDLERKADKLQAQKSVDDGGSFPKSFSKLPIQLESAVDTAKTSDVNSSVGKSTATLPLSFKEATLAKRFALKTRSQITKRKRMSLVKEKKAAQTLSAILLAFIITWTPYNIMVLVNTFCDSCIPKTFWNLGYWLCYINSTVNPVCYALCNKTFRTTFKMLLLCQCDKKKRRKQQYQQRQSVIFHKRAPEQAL
# Procedure: as §1, §2, §3
# [3] = target: T1, human muscarinic M1 receptors; test: IP production in A9L cells with human M1 receptors (IPOne TR-FRET), Example 28; settings: for potency and efficacy at M1 muscarinic receptors (in words): huM1/A9L; for huM1/A9L Smax: percentage of maximal stimulation by carbachol; for huM1/A9L ED50 relative to CCh*: potency relative to carbachol at its EC50, semi-quantitative
# Procedure: (§4) Muscarinic M1 and M3 agonist activity was evaluated by measuring the stimulation of inositol phosphate (IP) production in the presence of lithium chloride from A9L cells transfected with expression plasmids containing human muscarinic M1 and M3 receptors, respectively. The cell lines were a gift from Professor W Messer, and the methods were as described in Tejada F R et al. J. Med. Chem. 2006; 49: 7518-31 except that the assay was scaled down to run in 384 well plates, and IP was measured in the cell lysates using the non-isotopic IPOne TR-FRET assay (CIS-BIO, Inc).
# as §2, with “384 well hi-base” for “384-well high-base, small-volume”, “(pH7.4),” for “(pH=7.4),”
# as §3
# [4] = target: T2, human muscarinic M3 receptors; test: IP production in A9L cells with human M3 receptors (IPOne TR-FRET), Example 28; settings: for huM3/A9L Smax: percentage of maximal stimulation by carbachol; for huM3/A9L ED50 relative to CCh*: potency relative to carbachol at its EC50, semi-quantitative
# Procedure: as §4
# as §2, with “384 well hi-base” for “384-well high-base, small-volume”, “(pH7.4),” for “(pH=7.4),”
# as §3
structure (smiles),measurement,setting,value
"Cc1noc(C23CNCC2C3)n1 (racemic) [Compound 121, 5-(4,4-d2-3-Azabicyclo[3.1.0]hexan-1-yl)-3-methyl-1,2,4-oxadiazole]",huM1/A9L Potency relative to carbachol,[1],1.10
same,huM3/A9L Potency relative to carbachol,[2],0.45
"Cc1noc(C2CCCN(C)C2)n1 (stereo not drawn) [Compound 5, 3-Methyl-5-(1-methylpiperidin-3-yl)-1,2,4-oxadiazole]",potency and efficacy at M1 muscarinic receptors (in words),[3],essentially inactive
same,huM1/A9L Smax,[3],20%
same,huM1/A9L ED50 relative to CCh*,[3],inactive
same,huM3/A9L Smax,[4],20%
same,huM3/A9L ED50 relative to CCh*,[4],inactive
"Cc1nsc(C2CCCNC2)n1.Cl (stereo not drawn) [Compound 12a, 3-methyl-5-(piperidin-3-yl)-1,2,4-thiadiazole hydrochloride]",huM1/A9L Smax,[3],101%
same,huM1/A9L ED50 relative to CCh*,[3],+ (+ potency 2-10x CCh)
same,huM3/A9L Smax,[4],58%
same,huM3/A9L ED50 relative to CCh*,[4],+ (+ potency 2-10x CCh)
"c1nsc(C2CCCNC2)n1 (stereo not drawn) [Compound 12b, 5-(piperidin-3-yl)-1,2,4-thiadiazol]",huM1/A9L Smax,[3],100%
same,huM1/A9L ED50 relative to CCh*,[3],− (− potency <0.5-0.1x CCh)
same,huM3/A9L Smax,[4],60%
same,huM3/A9L ED50 relative to CCh*,[4],−− (−− potency <0.1x CCh)
"Cc1noc(C2CCC(C)NC2)n1 (stereo not drawn) [Compound 18, 3-Methyl-5-(6-methylpiperidin-3-yl)-1,2,4-oxadiazole]",huM1/A9L Smax,[3],14%
same,huM1/A9L ED50 relative to CCh*,[3],inactive
same,huM3/A9L Smax,[4],18%
same,huM3/A9L ED50 relative to CCh*,[4],inactive
Cc1noc([C@H]2CC[C@H](C)NC2)n1 [Compound 19],huM1/A9L Smax,[3],15%
same,huM1/A9L ED50 relative to CCh*,[3],inactive
same,huM3/A9L Smax,[4],34%
same,huM3/A9L ED50 relative to CCh*,[4],inactive
Cc1noc([C@H]2CNC[C@@H](C)C2)n1 [Compound 20],huM1/A9L Smax,[3],9%
same,huM1/A9L ED50 relative to CCh*,[3],inactive
same,huM3/A9L Smax,[4],20%
same,huM3/A9L ED50 relative to CCh*,[4],inactive
Cc1noc([C@@H]2CNC[C@@H](C)C2)n1 [Compound 21],huM1/A9L Smax,[3],18%
same,huM1/A9L ED50 relative to CCh*,[3],inactive
same,huM3/A9L Smax,[4],14%
same,huM3/A9L ED50 relative to CCh*,[4],inactive
Cc1noc([C@H]2CNCC[C@H]2C)n1 [Compound 22],huM1/A9L Smax,[3],7%
same,huM1/A9L ED50 relative to CCh*,[3],inactive
same,huM3/A9L Smax,[4],15%
same,huM3/A9L ED50 relative to CCh*,[4],inactive
Cc1noc([C@@H]2CNCC[C@H]2C)n1 [Compound 23],huM1/A9L Smax,[3],23%
same,huM1/A9L ED50 relative to CCh*,[3],inactive
same,huM3/A9L Smax,[4],19%
same,huM3/A9L ED50 relative to CCh*,[4],inactive
Cc1noc([C@@H]2CCCN[C@@H]2C)n1 [Compound 24],huM1/A9L Smax,[3],41%
same,huM1/A9L ED50 relative to CCh*,[3],−− (−− potency <0.1x CCh)
same,huM3/A9L Smax,[4],32%
same,huM3/A9L ED50 relative to CCh*,[4],inactive
Cc1noc([C@H]2CCCN[C@@H]2C)n1 [Compound 25],huM1/A9L Smax,[3],3%
same,huM1/A9L ED50 relative to CCh*,[3],inactive
same,huM3/A9L Smax,[4],20%
same,huM3/A9L ED50 relative to CCh*,[4],inactive
"Nc1noc(C2CCCNC2)n1 (stereo not drawn) [Compound 27, 3-Amino-5-(piperidin-3-yl)-1,2,4-oxadiazole]",huM1/A9L Smax,[3],97%
same,huM1/A9L ED50 relative to CCh*,[3],+ (+ potency 2-10x CCh)
same,huM3/A9L Smax,[4],20%
same,huM3/A9L ED50 relative to CCh*,[4],+/− (+/− potency 0.5-2x CCh)
"Cc1noc(C2CCNC2)n1 (stereo not drawn) [Compound 31, 3-methyl-5-(pyrrolidin-3-yl)-1,2,4-oxadiazole]",huM1/A9L Smax,[3],113%
same,huM1/A9L ED50 relative to CCh*,[3],+ (+ potency 2-10x CCh)
same,huM3/A9L Smax,[4],60%
same,huM3/A9L ED50 relative to CCh*,[4],− (− potency <0.5-0.1x CCh)
"CCc1noc(C2CCCNC2)n1 (stereo not drawn) [Compound 38, 3-ethyl-5-(piperidin-3-yl)-1,2,4-oxadiazo1e]",potency and efficacy at M1 muscarinic receptors (in words),[3],essentially inactive
same,huM1/A9L Smax,[3],15%
same,huM1/A9L ED50 relative to CCh*,[3],inactive
same,huM3/A9L Smax,[4],<14%
same,huM3/A9L ED50 relative to CCh*,[4],inactive
